The text below walks through data of patent EP3835316A1, “MOLECULES FOR USE TO TREAT OR PREVENT CARDIAC DISEASES” (Universiteit Gent, priority 2019, dated 2021).

In the assay the target is T1, Cx43 HC (Mus musculus, UniProt P23242).
T1 construct: left ventricular isolated cardiomyocytes were collected; endogenous in cells; host or cells: left ventricular cardiomyocytes acutely isolated from adult C57BL6 mice
The experiment in a line: Whole cell voltage-clamp recording of Cx43 HC unitary currents activated by combined RyR activation (caffeine)/[Ca2+]i elevation in isolated ventricular cardiomyocytes. The note with it: RyR inhibitors; [Ca2+]i clamped to 250 nM (10 mM BAPTA); Vm = -70 mV. Format: cell-based. On the procedure:
Adult C57BL6 mice, between 10 - 16 weeks, were heparinized (5000 IU/kg IP) and sacrificed by cervical dislocation. Following thoracotomy, the heart was quickly excised and then transferred to a Langendorff apparatus and perfused at a constant flow (^∼3 mL/min) and temperature (37°C). The heart was digested using collagenase and protease and left ventricular isolated cardiomyocytes were collected. Ca^2+-tolerant cells were used for the experiment for the next 6 hours. In case of Cx43 knockdown (KD) (Cx43^CreER(T)/fl) and respective control mice (Cre43^fl/fl) the isolation procedures were preceded by daily injection of tamoxifen to achieve global knockdown condition^25. Cre43^fl/fl mice are available from The Jackson Laboratory and the Cx43^CreER(T)/fl transgenic mouse strain can be made by any method known in the art.
Isolated ventricular cardiomyocytes and HeLa-Cx43 cells were studied under whole cell voltage-clamp to record membrane currents. Patch clamp experiments were conducted at room temperature (22 ± 1 °C). Fluo-4 (25 µM) was used to detect the [Ca^2+]i transients during the current recording.
Caffeine triggers two combined events, RyR activation and subsequent [Ca^2+]i elevation, and we next aimed to separate both processes. […] For simplicity, we further refer to the calculated concentrations in the following text. […]

T1 sequence (P23242 whole entry): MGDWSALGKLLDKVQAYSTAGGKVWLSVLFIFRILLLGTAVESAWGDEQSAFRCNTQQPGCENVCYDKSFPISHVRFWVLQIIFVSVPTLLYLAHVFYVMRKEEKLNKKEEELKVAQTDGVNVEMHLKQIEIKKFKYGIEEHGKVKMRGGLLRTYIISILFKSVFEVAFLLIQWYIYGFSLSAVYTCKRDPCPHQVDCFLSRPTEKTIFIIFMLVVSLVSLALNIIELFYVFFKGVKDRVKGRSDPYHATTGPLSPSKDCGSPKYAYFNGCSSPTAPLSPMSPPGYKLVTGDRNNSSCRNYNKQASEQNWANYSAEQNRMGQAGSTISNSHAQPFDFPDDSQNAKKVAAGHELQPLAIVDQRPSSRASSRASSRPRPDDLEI

As to ryanodine, the “caffeine-induced Cx43 HC activation” value is on record as “did not inhibit”.
For `O=C1CN(/N=C/c2ccc(-c3ccc([N+](=O)[O-])cc3)o2)C(O)=N1` [dantrolene], the “caffeine-induced Cx43 HC activation” value is “did not inhibit”.
